Results: PubChem BioAssay AID256 (DTP/NCI, 2004)
Where “and” joins values, the source holds several entries; their conditions need not be identical. Equal entries are not always repeated. Inconclusive results and toxic doses are left out.

System: CD2F1 mice, L1210 leukemia ip, survival T/C
Assay: NCI In Vivo Anticancer Drug Screen. Data for tumor model L1210 Leukemia (intraperitoneal) in CD2F1 (CDF1) mice
Settings: higher = longer survival
In short: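 Ratio T/C, where T is the treated-group value and C the vehicle-dosed control value, from mice implanted with a transplantable tumor.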

[1] = endpoint: mean survival time, dose: 50.0 mg/kg/injection, schedule: Q04DX003 (ip), vehicle: saline with Tween-80
[2] = endpoint: mean survival time, dose: 100.0 mg/kg/injection, schedule: Q01DX009 (ip), vehicle: water
[3] = endpoint: mean survival time, dose: 200.0 mg/kg/injection, schedule: Q01DX009 (ip), vehicle: water
[4] = endpoint: mean survival time, dose: 12.5 mg/kg/injection, schedule: Q01DX005 (ip), vehicle: distilled water + Tween-80
[5] = endpoint: mean survival time, dose: 25.0 mg/kg/injection, schedule: Q01DX005 (ip), vehicle: distilled water + Tween-80
[6] = endpoint: mean survival time, dose: 50.0 mg/kg/injection, schedule: Q01DX005 (ip), vehicle: distilled water + Tween-80
[7] = endpoint: mean survival time, dose: 100.0 mg/kg/injection, schedule: Q01DX005 (ip), vehicle: distilled water + Tween-80
[8] = endpoint: mean survival time, dose: 100.0 mg/kg/injection, schedule: Q01DX009 (ip), vehicle: saline with Tween-80
[9] = endpoint: mean survival time, dose: 100.0 mg/kg/injection, schedule: Q04DX003 (ip), vehicle: saline with Tween-80
[10] = endpoint: mean survival time, dose: 200.0 mg/kg/injection, schedule: Q01DX009 (ip), vehicle: saline with Tween-80
[11] = endpoint: mean survival time, dose: 200.0 mg/kg/injection, schedule: Q04DX003 (ip), vehicle: saline with Tween-80
[12] = endpoint: mean survival time, dose: 100.0 mg/kg/injection, schedule: Q01DX001 (ip), vehicle: Klucel (hydroxypropylcellulose) (HPC)
[13] = endpoint: mean survival time, dose: 200.0 mg/kg/injection, schedule: Q01DX001 (ip), vehicle: Klucel (hydroxypropylcellulose) (HPC)
[14] = endpoint: mean survival time, dose: 50.0 mg/kg/injection, schedule: Q01DX009 (ip), vehicle: saline with Tween-80

CCCCCCCCCCCCCCCCN(C)C
T/C (endpoint: mean survival time, dose: 25.0 mg/kg/injection, schedule: Q04DX003 (ip), vehicle: saline with Tween-80): 94 % of control
T/C [1]: 95 % of control

CN1CC(C(=O)NC(C)(C)C)CC(c2ccccc2)C1 (configuration not stated)
T/C (endpoint: mean survival time, dose: 6.25 mg/kg/injection, schedule: Q01DX001 (ip), vehicle: saline with Tween-80): 102 % of control
T/C (endpoint: mean survival time, dose: 12.5 mg/kg/injection, schedule: Q01DX001 (ip), vehicle: saline with Tween-80): 106 % of control
T/C (endpoint: mean survival time, dose: 25.0 mg/kg/injection, schedule: Q01DX001 (ip), vehicle: saline with Tween-80): 100 % of control

O=c1[nH]cnc2c1ncn2C1OC(CO)C(O)C1O.O=c1[nH]cnc2c1ncn2C1OC(CO)C(O)C1O.[Cl][Pt][Cl] (configuration not stated)
T/C (endpoint: mean survival time, dose: 12.5 mg/kg/injection, schedule: Q01DX009 (ip), vehicle: water): 103 % of control
T/C (endpoint: mean survival time, dose: 25.0 mg/kg/injection, schedule: Q01DX009 (ip), vehicle: water): 101 % of control
T/C (endpoint: mean survival time, dose: 50.0 mg/kg/injection, schedule: Q01DX009 (ip), vehicle: water): 101 % of control
T/C [2]: 101 % of control
T/C [3]: 97 % of control

O=c1[nH]c(=O)n(C2OC(CO)C(O)C2O)nc1SCc1ccccc1 (configuration not stated)
T/C [4]: 100 % of control
T/C [5]: 97 % of control
T/C [6]: 101 % of control
T/C [7]: 97 % of control
T/C (endpoint: mean survival time, dose: 200.0 mg/kg/injection, schedule: Q01DX005 (ip), vehicle: distilled water + Tween-80): 97 % of control

C/C(=N/O)c1ccc(C)cc1
T/C [8]: 94 % of control
T/C [9]: 105 % of control
T/C [10]: 91 % of control
T/C [11]: 107 % of control
T/C (endpoint: mean survival time, dose: 400.0 mg/kg/injection, schedule: Q01DX009 (ip), vehicle: saline with Tween-80): 93 % of control
T/C (endpoint: mean survival time, dose: 400.0 mg/kg/injection, schedule: Q04DX003 (ip), vehicle: saline with Tween-80): 102 % of control

CCOC(=O)Nc1cc([N+](C)(C)C)ccc1OCCOc1ccc([N+](C)(C)C)cc1
T/C (endpoint: mean survival time, dose: 0.15 mg/kg/injection, schedule: Q04DX003 (ip), vehicle: Klucel (hydroxypropylcellulose) (HPC)): 100 % of control
T/C (endpoint: mean survival time, dose: 0.3 mg/kg/injection, schedule: Q04DX003 (ip), vehicle: Klucel (hydroxypropylcellulose) (HPC)): 90 % of control
T/C (endpoint: mean survival time, dose: 0.6 mg/kg/injection, schedule: Q04DX003 (ip), vehicle: Klucel (hydroxypropylcellulose) (HPC)): 100 % of control

COC(=O)/C=N/Nc1ccc(C)cc1
T/C [2]: 86 % of control
T/C [3]: 88 % of control
T/C (endpoint: mean survival time, dose: 400.0 mg/kg/injection, schedule: Q01DX009 (ip), vehicle: water): 86 % of control

c1ccc2c(CC3=NCCN3)cccc2c1
T/C (endpoint: mean survival time, dose: 12.5 mg/kg/injection, schedule: Q04DX003 (ip), vehicle: saline with Tween-80): 98 % of control
T/C [1]: 88 % of control
T/C (endpoint: mean survival time, dose: 50.0 mg/kg/injection, schedule: Q04DX003 (ip), vehicle: saline): 102 % of control

Cc1ccc(Nc2nc(N)nc3c2ncn3C2OC(CO)C(O)C2O)cc1 (configuration not stated)
T/C [4]: 95 % of control
T/C [5]: 90 % of control
T/C [6]: 98 % of control
T/C [7]: 108 % of control

Nc1ncnc(N)c1N
T/C [8]: 112 % of control

Cc1c2ccccc2c(CSCCC(N)C(=O)O)c2ccc3ccccc3c12 (configuration not stated)
T/C [9]: 96 % of control
T/C [11]: 87 % of control

O=c1cc(-c2ccc(S(=O)(=O)F)cc2)[nH]c2ccc([N+](=O)[O-])cc12
T/C [12]: 108 % of control
T/C [13]: 101 % of control
T/C (endpoint: mean survival time, dose: 400.0 mg/kg/injection, schedule: Q01DX001 (ip), vehicle: Klucel (hydroxypropylcellulose) (HPC)): 112 % of control

CC(=O)OCC1OC(Nc2nncs2)C(OC(C)=O)C1OC(C)=O (configuration not stated)
T/C (endpoint: median survival time, dose: 12.5 mg/kg/injection, schedule: Q01DX005 (ip), vehicle: distilled water + Tween-80): 97 % of control
T/C (endpoint: median survival time, dose: 25.0 mg/kg/injection, schedule: Q01DX005 (ip), vehicle: distilled water + Tween-80): 96 % of control
T/C (endpoint: median survival time, dose: 50.0 mg/kg/injection, schedule: Q01DX005 (ip), vehicle: distilled water + Tween-80): 102 % of control
T/C (endpoint: median survival time, dose: 100.0 mg/kg/injection, schedule: Q01DX005 (ip), vehicle: distilled water + Tween-80): 100 % of control
T/C (endpoint: median survival time, dose: 200.0 mg/kg/injection, schedule: Q01DX005 (ip), vehicle: distilled water + Tween-80): 100 % of control

CCC/C=C/C=C/C(=O)OC1/C(=C/C(=O)OC)CC2CC(C(C)O)OC(=O)CC(O)CC3CC(OC(C)=O)C(C)(C)C(O)(CC4C/C(=C/C(=O)OC)CC(/C=C/C(C)(C)C1(O)O2)O4)O3 (configuration not stated)
T/C (endpoint: median survival time, dose: 18.75 micrograms/kg/injection, schedule: Q01DX009 (ip), vehicle: saline + alcohol): 113 % of control and 117 % of control
T/C (endpoint: median survival time, dose: 37.5 micrograms/kg/injection, schedule: Q01DX009 (ip), vehicle: saline + alcohol): 124 % of control
T/C (endpoint: median survival time, dose: 150.0 micrograms/kg/injection, schedule: Q01DX009 (ip), vehicle: saline + alcohol): 151 % of control

N#CC(c1ccccc1)C1CCCCC1 (configuration not stated)
T/C (endpoint: mean survival time, dose: 75.0 mg/kg/injection, schedule: Q01DX009 (ip), vehicle: saline): 95 % of control
T/C (endpoint: mean survival time, dose: 150.0 mg/kg/injection, schedule: Q01DX009 (ip), vehicle: saline): 106 % of control
T/C (endpoint: mean survival time, dose: 300.0 mg/kg/injection, schedule: Q01DX009 (ip), vehicle: saline): 108 % of control

O=C(O)c1cccc2c1-c1c(cccc1[N+](=O)[O-])C2
T/C [14]: 96 % of control
T/C [8]: 97 % of control
T/C [9]: 101 % of control
T/C [10]: 91 % of control
T/C [11]: 100 % of control

NC(=O)c1ccn(C2OC(CO)C(O)C2O)n1 (configuration not stated)
T/C (endpoint: mean survival time, dose: 200.0 mg/kg/injection, schedule: Q01DX005 (ip), vehicle: other): 106 % of control
T/C (endpoint: mean survival time, dose: 400.0 mg/kg/injection, schedule: Q01DX005 (ip), vehicle: other): 107 % of control
T/C (endpoint: mean survival time, dose: 800.0 mg/kg/injection, schedule: Q01DX005 (ip), vehicle: other): 117 % of control

CCCCCCCCCCCCCCCCC(Br)C(=O)c1ccccc1 (configuration not stated)
T/C (endpoint: mean survival time, dose: 100.0 mg/kg/injection, schedule: Q04DX002 (ip), vehicle: saline with Tween-80): 102 % of control
T/C (endpoint: mean survival time, dose: 200.0 mg/kg/injection, schedule: Q04DX002 (ip), vehicle: saline with Tween-80): 95 % of control
T/C (endpoint: mean survival time, dose: 400.0 mg/kg/injection, schedule: Q04DX002 (ip), vehicle: saline with Tween-80): 111 % of control

O=C(Nc1ccc(Cl)c(Cl)c1)Nc1ccc(Oc2ccc(Cl)cc2Cl)cc1S(=O)(=O)O
T/C (endpoint: mean survival time, dose: 100.0 mg/kg/injection, schedule: Q01DX001 (ip), vehicle: acetone): 102 % of control
T/C (endpoint: mean survival time, dose: 200.0 mg/kg/injection, schedule: Q01DX001 (ip), vehicle: acetone): 91 % of control
T/C (endpoint: mean survival time, dose: 400.0 mg/kg/injection, schedule: Q01DX001 (ip), vehicle: acetone): 94 % of control

CCCCn1c(C)nc2c(N)cc(C(F)(F)F)cc21
T/C (endpoint: mean survival time, dose: 12.5 mg/kg/injection, schedule: Q01DX009 (ip), vehicle: Klucel (hydroxypropylcellulose) (HPC)): 100 % of control
T/C (endpoint: mean survival time, dose: 25.0 mg/kg/injection, schedule: Q01DX001 (ip), vehicle: Klucel (hydroxypropylcellulose) (HPC)): 96 % of control
T/C (endpoint: mean survival time, dose: 25.0 mg/kg/injection, schedule: Q01DX009 (ip), vehicle: Klucel (hydroxypropylcellulose) (HPC)): 91 % of control
T/C (endpoint: mean survival time, dose: 25.0 mg/kg/injection, schedule: Q04DX003 (ip), vehicle: Klucel (hydroxypropylcellulose) (HPC)): 96 % of control
T/C (endpoint: mean survival time, dose: 50.0 mg/kg/injection, schedule: Q01DX001 (ip), vehicle: Klucel (hydroxypropylcellulose) (HPC)): 102 % of control
T/C (endpoint: mean survival time, dose: 50.0 mg/kg/injection, schedule: Q01DX009 (ip), vehicle: Klucel (hydroxypropylcellulose) (HPC)): 100 % of control
T/C (endpoint: mean survival time, dose: 50.0 mg/kg/injection, schedule: Q04DX003 (ip), vehicle: Klucel (hydroxypropylcellulose) (HPC)): 100 % of control
T/C [12]: 97 % of control
T/C (endpoint: mean survival time, dose: 100.0 mg/kg/injection, schedule: Q01DX009 (ip), vehicle: Klucel (hydroxypropylcellulose) (HPC)): 102 % of control
T/C (endpoint: mean survival time, dose: 100.0 mg/kg/injection, schedule: Q04DX003 (ip), vehicle: Klucel (hydroxypropylcellulose) (HPC)): 93 % of control
T/C [13]: 94 % of control
T/C (endpoint: mean survival time, dose: 200.0 mg/kg/injection, schedule: Q04DX003 (ip), vehicle: Klucel (hydroxypropylcellulose) (HPC)): 100 % of control

CC(S)c1ccccc1 (configuration not stated)
T/C [14]: 90 % of control
T/C [8]: 102 % of control
T/C [9]: 104 % of control
T/C [10]: 104 % of control
T/C [11]: 98 % of control
